Test system: fungal pathogen
Assay: Control treatments with processing aids alone on young plants inoculated with fungal pathogen
Assay type: in vivo
Conditions: applied alone at final rates similar to those in the pellet fractions; compared with UTC plants
Description: GEROPON® (SDOS) and C12EO25 were also each applied to young plants at final rates similar to those in the pellet fractions. The young plants were later inoculated with fungal pathogen and the each plant was scored for percent control of the pathogen relative to the UTC plants.

Substance: polyoxyethylene (25) dodecyl ether [C12EO25]
- inherent antifungal activity: no inherent antifungal activity

Reference: patent US10703775B2, “Method of purifying antifungal compounds and exopolysaccharides from a microbial cell culture” (Bayer CropScience LP, priority 2016, dated 2020)
